Assay results as given in article PMC9171646 (Proceedings of the National Academy of Sciences of the …, 2022).
Entries after “also recorded” stand apart in the source; their conditions may differ.

Columns and labels:
EF-G(GDP)-ribosome INT2 = conditions: cited from earlier work
EF-G = conditions: cited from earlier work
[1] = tested on: EF-G-bound translocating 70S ribosome; assay: Presteady-state smFRET imaging of translocation; type: biochemical, E. coli; conditions: for Final state after prolonged stalling: 400 ms time resolution, extended imaging (Fig. S4A); for Effect on translocation: EF-G(GTP) delivered with 10 µM drug to PRE ribosomes, 25 °C; for Affinity for ribosome-bound EF-G vs EF-G in solution: inferred from smFRET with EF-G in excess
eEF2 = conditions: cited from earlier work
[2] = tested on: EF-G-ribosome translocation intermediate (INT2); assay: Presteady-state cryo-EM structure of EF-G-ArgB-INT2 translocation intermediate; type: binding, E. coli
P. aeruginosa EF-G1 = conditions: cited from earlier work
[3] = tested on: E. coli EF-G-70S ribosome; assay: Cryo-EM structure of EF-G-ArgB-70S complex; type: binding
[4] = tested on: EF-G from P. aeruginosa (EF-G1); conditions: free P. aeruginosa EF-G1; cited from earlier work
Pseudomonas aeruginosa = conditions: cited from earlier work

Molecule | Binding site on EF-G (EF-G(GDP)-ribosome INT2) | Resistance by EF-G mutations (EF-G) | Final state after prolonged stalling [1] | Effect on translocation [1] | Binding site on eEF2 (eEF2) | Binding site on EF-G in translocation intermediate ([2]; 10 µM ArgB, 5 µM EF-G, 1 mM GTP) | Contacts of ArgB in EF-G binding pocket ([2]; EF-G-ArgB-INT2, E. coli numbering) | Inhibition of ribosomes with EF-G in excess ([1]; EF-G in fivefold excess over ArgB (10 µM ArgB, 50 µM EF-G)) | Affinity for ribosome-bound EF-G vs EF-G in solution [1] | Affinity for ribosome-bound EF-G vs EF-G in solution ([1]; listed as Argyrin B) | Resistance by mutation of Pro414 (P. aeruginosa EF-G1; ArgB-resistant strains) | Resistance by Thr671Ala (E. coli Thr668) (P. aeruginosa EF-G1; P. aeruginosa EF-G1 domain V) | Binding site on EF-G ([3]; 50 µM ArgB, 0.4 µM 70S, 1 µM EF-G, 500 µM GTP) | State in which EF-G is trapped ([3]; nucleotide density compatible with GDP, switch-I disordered) | Direct binding to EF-G1, binding site [4] | Antimicrobial activity against P. aeruginosa (Pseudomonas aeruginosa)
CC(=O)O[C@H]1C[C@@]2(C)[C@@H](C[C@@H](O)[C@H]3[C@@]4(C)CC[C@@H](O)[C@@H](C)[C@@H]4CC[C@@]32C)/C1=C(\CCC=C(C)C)C(=O)O [FA, fusidic acid, reference compound] | between domains I and III | mutations in EF-G have been reported to confer FA resistance | eventually reached an EF-G-bound drug-stalled POST state after prolonged stalling | prolonged stalls during late steps of translocation |  |  |  |  |  |  |  |  |  |  |  | 
CO[C@H]1[C@@H](O)[C@H](O)[C@H](OC[C@@]23C[C@@H]4[C@H](C)CC[C@H]4[C@@]4(C=O)CC2C=C(C(C)C)[C@@]34C(=O)O)O[C@@H]1C [Sordarin] |  |  |  |  | binds between domains III and V of eEF2 |  |  |  |  |  |  |  |  |  |  | 
argyrin B [ArgB] |  |  | eventually reached an EF-G-bound drug-stalled POST state after prolonged stalling | prolonged stalls during late steps of translocation |  | in the junction between EF-G domains III and V | van der Waals interactions with Met617, Leu660, and Met682 within domain V of EF-G and the backbone amide of Ala489 of EF-G was positioned within hydrogen bonding distance to the Sarcosine moiety | all ribosomes were inhibited | preferentially binds with high affinity to EF-G when it is bound to the ribosome; also recorded: lower affinity for EF-G in solution than on the ribosome | low affinity toward EF-G off the ribosome, but high affinity to EF-G bound to the ribosome | commonly mutated in ArgB-resistant strains | resistance to ArgB | between domain III and V of EF-G | traps EF-G on the ribosome after GTP hydrolysis and Pi release | bind directly to EF-G from P. aeruginosa (EF-G1) with the binding site located between domains III and V | at the forefront
